Experimental data published in US9040523B2, “Antifungal 5,6-dihydro-4H-pyrrolo[1,2-α][1,4]-benzodiazepines and 6H-pyrrolo[1,2-α][1,4]benzodiazepines substituted with benzene derivatives” (JANSSEN PHARMACEUTICA NV, priority 2010, dated 2015).

Experiments:
Cytochrome P450 2D6 = Cytochrome P450 2D6 (Homo sapiens, UniProt P10635); experiment: Human liver microsomal cytochrome P450 cocktail inhibition assay, Protocol C; conditions: 2D6_Dextro pIC50, human liver microsomes 0.2 mg/ml; probe dextromethorphan 3 microM
Sequence of Cytochrome P450 2D6 (P10635 whole entry): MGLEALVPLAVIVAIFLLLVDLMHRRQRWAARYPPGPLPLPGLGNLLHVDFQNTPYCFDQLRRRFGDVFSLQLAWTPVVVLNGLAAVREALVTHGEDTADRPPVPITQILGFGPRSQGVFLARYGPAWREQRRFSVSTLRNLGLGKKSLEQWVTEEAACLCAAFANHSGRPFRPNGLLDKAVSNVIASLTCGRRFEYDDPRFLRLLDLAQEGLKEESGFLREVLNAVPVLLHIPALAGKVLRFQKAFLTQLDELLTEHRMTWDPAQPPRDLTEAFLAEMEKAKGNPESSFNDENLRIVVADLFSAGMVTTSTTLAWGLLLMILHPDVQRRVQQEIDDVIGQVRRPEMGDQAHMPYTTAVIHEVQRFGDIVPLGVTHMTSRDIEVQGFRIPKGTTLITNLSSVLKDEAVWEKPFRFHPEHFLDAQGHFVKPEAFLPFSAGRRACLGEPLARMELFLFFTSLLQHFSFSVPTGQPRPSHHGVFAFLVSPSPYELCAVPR
Experimental: (§1) Probe substrates and final assay concentrations with the appropriate internal standard are outlined in Table 6a.
(§2) Assays were performed in 0.1 M phosphate buffer (pH 7.4), containing 0.2 mg/ml human liver microsomes (BD Gentest) and a probe substrate mix consisting of: phenacetin, tolbutamide, S-mephenyloin, dextromethorphan, amodiaquine and midazolam (Table 6a) and a range of test compound concentrations (0 to 30 micromolar) in a total volume of 100 microliters. After a 10 min pre-incubation at 37° C., the reaction was started with addition of NADPH at a final concentration of 1.0 mM. […] The samples are centrifuged for 10 min at 4° C. at 4000 rpm and 60 microliters supernatant is diluted with 180 microliters water. Each sample is injected onto a UPLC/MS system for the simultaneous measurement of the probe substrate metabolites and their associated deuterated internal standards. Percentage inhibition is calculated according to: %-inhibition=(1−Ri/R)*100, whereby Ri and R are the metabolite to internal standard peak area ratios in the presence and absence of inhibitor respectively.
(§3) Percentage inhibition data are plotted against the Log transformed test compound concentration and after curve fitting the IC50-value is determined.

Cytochrome P450 2C19 = Cytochrome P450 2C19 (Homo sapiens, UniProt P33261); experiment: as above; conditions: 2C19_S-Meph pIC50, human liver microsomes 0.2 mg/ml; probe S-mephenytoin 30 microM
Sequence of Cytochrome P450 2C19 (P33261 whole entry): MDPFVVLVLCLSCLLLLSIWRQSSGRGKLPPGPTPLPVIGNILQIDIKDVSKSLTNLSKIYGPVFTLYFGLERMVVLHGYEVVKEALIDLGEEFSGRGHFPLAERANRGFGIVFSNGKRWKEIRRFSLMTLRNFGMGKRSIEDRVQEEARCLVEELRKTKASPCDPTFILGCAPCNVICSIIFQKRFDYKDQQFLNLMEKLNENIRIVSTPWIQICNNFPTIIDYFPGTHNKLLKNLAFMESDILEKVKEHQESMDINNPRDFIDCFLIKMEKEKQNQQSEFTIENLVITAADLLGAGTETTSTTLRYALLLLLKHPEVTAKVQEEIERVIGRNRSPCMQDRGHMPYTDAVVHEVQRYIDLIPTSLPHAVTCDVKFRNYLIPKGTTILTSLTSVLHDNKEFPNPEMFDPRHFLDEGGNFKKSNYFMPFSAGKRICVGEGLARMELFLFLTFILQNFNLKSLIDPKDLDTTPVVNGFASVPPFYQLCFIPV
Experimental: as §1, §2, §3

Cytochrome P450 2C9 = Cytochrome P450 2C9 (Homo sapiens, UniProt P11712); experiment: as above; conditions: 2C9 Tolbut pIC50, human liver microsomes 0.2 mg/ml; probe tolbutamide 100 microM
Sequence of Cytochrome P450 2C9 (P11712 whole entry): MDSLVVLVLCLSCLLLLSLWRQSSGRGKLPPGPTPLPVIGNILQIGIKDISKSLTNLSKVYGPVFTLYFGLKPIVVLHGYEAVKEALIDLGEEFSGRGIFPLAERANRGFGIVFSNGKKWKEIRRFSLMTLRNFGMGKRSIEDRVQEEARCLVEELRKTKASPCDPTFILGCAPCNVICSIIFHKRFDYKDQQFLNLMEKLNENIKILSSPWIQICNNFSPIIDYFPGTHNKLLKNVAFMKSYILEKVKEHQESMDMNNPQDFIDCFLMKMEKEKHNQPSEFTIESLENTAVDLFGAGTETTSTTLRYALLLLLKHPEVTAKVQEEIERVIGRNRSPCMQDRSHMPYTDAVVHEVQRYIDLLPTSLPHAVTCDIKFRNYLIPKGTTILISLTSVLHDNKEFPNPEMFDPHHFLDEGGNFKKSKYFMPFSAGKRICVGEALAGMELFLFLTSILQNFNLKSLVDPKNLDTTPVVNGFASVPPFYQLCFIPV
Experimental: as §1, §2, §3

Cytochrome P450 1A2 = biological target: T1, Cytochrome P450 1A2 (Homo sapiens, UniProt P05177); experiment: as above
T1 sequence (P05177 1-516): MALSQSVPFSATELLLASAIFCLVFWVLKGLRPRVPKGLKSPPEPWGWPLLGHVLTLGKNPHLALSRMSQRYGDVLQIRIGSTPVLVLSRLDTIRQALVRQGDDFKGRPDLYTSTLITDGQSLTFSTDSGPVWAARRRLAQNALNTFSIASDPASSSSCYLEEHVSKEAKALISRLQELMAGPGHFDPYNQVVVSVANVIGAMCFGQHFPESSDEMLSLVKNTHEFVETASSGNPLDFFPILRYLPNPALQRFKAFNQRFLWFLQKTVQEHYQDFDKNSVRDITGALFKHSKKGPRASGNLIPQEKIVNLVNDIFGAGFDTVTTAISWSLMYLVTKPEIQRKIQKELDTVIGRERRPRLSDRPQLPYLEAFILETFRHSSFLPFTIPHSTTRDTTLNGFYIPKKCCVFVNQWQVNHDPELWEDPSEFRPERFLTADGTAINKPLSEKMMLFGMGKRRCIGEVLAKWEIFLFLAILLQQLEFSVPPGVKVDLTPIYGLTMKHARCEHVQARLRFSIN
Experimental: as §1, §2, §3

Microsporum canis B68128 = experiment: Antifungal activity in vitro (resazurin susceptibility screen), Inf. B; format: cell-based; conditions: Microsporum canis, B68128, Microsporum canis B68128; 27 °C, 9 days, resa time 24 hours; read-out: Inf. B pIC50 (converted)
Experimental: (§4) The standard susceptibility screen was performed in 96-well plates (U-bottom, Greiner Bio-One). […] These serial dilutions (10 n1) were then spotted onto test-plates that could be stored in the dark at 4° C. for a maximum period of 2 weeks. […] A standard inoculum of 200 μl containing 10^3 colony-forming unit (cfu) was then added to each well. A positive control (100% growth=fungal culture without antifungal) and a negative control (0% growth ═RPMI-MOPS medium) were included on each plate.

CYP1A2 = biological target: T2, CYP1A2 (Homo sapiens, UniProt P05177); experiment: Cytochrome P450 inhibition, Protocol A, cDNA expressed proteins, fluorogenic substrate; format: in vitro ADME
T2 sequence (P05177 1-516): T1 sequence (P05177 1-516)
Experimental: (§5) All fluorogenic based assays were performed in Black Costar 96-well plates according to Crespi et al 1997 with minor modifications (Crespi C L, Miller V P & Penman B W (1997). Microtiter plate assays for inhibition of human, drug-metabolizing cytochromes P450. Anal. Biochem. Vol 248, 1898-1900). Assay conditions are outlined in Table 5a. For cytochrome P450 3A4, three different fluorogenic substrates were used. Each reaction mixture consisted of the appropriate concentration of enzyme, NADPH-generating system (“NADPH” means β-nicotinamide adenine dinucleotide phosphate, reduced), substrate in sodium/potassium buffer (pH 7.4). For each cytochrome P450 batch Michealis-Menten kinetics were determined using 11 concentrations.
(§6) Thereafter, further dilutions were made in acetonitrile. […] The compounds were serially diluted to give final concentrations ranging from 1 nM to 10 μM. The reaction mixtures, whereby 1 μL of buffer was replaced by compound solution, were pre-warmed for 5 min at 37° C. and the reaction was initiated by the addition of β-nicotinamide adenine dinucleotide phosphate (NADP+). Reactions were terminated by addition of stopping reagent and the fluorescence was measured using a Fluoroscan (Labsystems, Brussel, Belgium).
(§7) In Table 5a, the following abbreviations were used: 3-cyano-7-ethocycoumarin (CEC), 7-methoxy-4-trifluoromethylcoumarin (MFC), 3-[2-(N,N-diethyl-N-methylamino)ethyl]-7-methoxy-4-methylcoumarin (AMMC), 7-benzyloxy-trifluoromethyl coumarin (BFC), 7-benzyloxyquinoline (BQ) and dibenzyl fluorescein (DBF).

CYP2D6 = CYP2D6 (Homo sapiens, UniProt P10635); experiment: as above; format: in vitro ADME
Sequence of CYP2D6 (P10635 whole entry): as the sequence (P10635 whole entry) above
Experimental: as §5, §6, §7

CYP2C9 = CYP2C9 (Homo sapiens, UniProt P11712); experiment: as above; format: in vitro ADME
Sequence of CYP2C9 (P11712 whole entry): as the sequence (P11712 whole entry) above
Experimental: as §5, §6, §7

[1] = tested on: Trichophyton mentagrophytes B70554; experiment: Antifungal activity in vitro (resazurin susceptibility screen), Inf. G; format: cell-based; conditions: Trichophyton mentagrophytes, B70554, Trichophyton mentagrophytes B70554; 27 °C, 7 days, resa time 24 hours; read-out: Inf. G pIC50 (converted)
Experimental: as §4

[2] = tested on: Trichophyton rubrum B68183; experiment: Antifungal activity in vitro (resazurin susceptibility screen), Inf. C; format: cell-based; conditions: Trichophyton rubrum B68183; 27 °C, 7 days, resa time 24 hours; read-out: Inf. C pIC50 (converted)
Experimental: (§8) The standard susceptibility screen was performed in 96-well plates (U-bottom, Greiner Bio-One). […] These serial dilutions (10 n1) were then spotted onto test-plates that could be stored in the dark at 4° C. for a maximum period of 2 weeks. […] The different fungal species/isolates (Table 3a) were cryopreserved and 1/1000 diluted in medium just prior to use. A standard inoculum of 200 μl containing 10^3 colony-forming unit (cfu) was then added to each well. A positive control (100% growth=fungal culture without antifungal) and a negative control (0% growth ═RPMI-MOPS medium) were included on each plate. […] [table]

CYP3A4 = CYP3A4 (Homo sapiens, UniProt P08684); experiment: Cytochrome P450 inhibition, Protocol A, cDNA expressed proteins, fluorogenic substrates; format: in vitro ADME
Sequence of CYP3A4 (P08684 whole entry): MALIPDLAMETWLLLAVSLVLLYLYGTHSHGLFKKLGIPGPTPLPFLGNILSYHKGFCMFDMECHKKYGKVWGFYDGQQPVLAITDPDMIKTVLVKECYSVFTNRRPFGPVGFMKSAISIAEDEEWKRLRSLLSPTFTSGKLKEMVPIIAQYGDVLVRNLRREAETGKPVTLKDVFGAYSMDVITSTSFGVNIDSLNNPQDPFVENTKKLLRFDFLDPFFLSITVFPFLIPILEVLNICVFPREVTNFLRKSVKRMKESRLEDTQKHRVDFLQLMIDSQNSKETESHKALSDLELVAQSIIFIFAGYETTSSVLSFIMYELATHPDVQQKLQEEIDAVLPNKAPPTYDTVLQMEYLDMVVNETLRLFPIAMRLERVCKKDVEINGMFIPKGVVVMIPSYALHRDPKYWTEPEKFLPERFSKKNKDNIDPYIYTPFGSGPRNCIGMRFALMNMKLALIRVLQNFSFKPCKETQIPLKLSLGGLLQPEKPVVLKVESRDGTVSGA
Experimental: as §5, §6, §7

[3] = tested on: Sporothrix schenkii B62482; experiment: Antifungal activity in vitro (resazurin susceptibility screen), Inf. A; format: cell-based; conditions: Sporothrix, B62482, Sporothrix schenkii B62482; 27 °C, 4 days, resa time 24 hours; highest in-test concentration 64 μM; read-out: Inf. A pIC50 (converted)
Experimental: as §8

[4] = Liver metabolic stability assay, hLM; format: in vitro ADME, human
Experimental: (§9) Liver preparations (microsomal fractions) were obtained from BD Gentest (San Jose, Calif., US). Metabolic stability was assessed using the following assay conditions. […] The mixture was pre-incubated at 37° C. for 5 min and the enzymatic reaction was started by addition of 5 μM test compound. After 0 (control) and 15 minutes (min), the reactions were terminated by addition of […] (500 μl). The precipitated material was removed by centrifugation at 1200 g for 10 min. The supernatant was analysed by LC-MS/MS on a ThermoFinnigan LCQ Deca XP ion-trap mass spectrometer equipped with an atmospheric pressure chemical ionisation source. Calculation of %-compound remaining was as described by Kantharaj et al. 2003 ((Kantharaj E., Tuytelaars A, Proost P E A, Ongel Z, van […] (2003). Simultaneous measurement of drug metabolic stability and identification of metabolites using ion-trap mass spectrometry.

[5] = tested on: Cryptococcus neoformans B66663; experiment: Antifungal activity in vitro (resazurin susceptibility screen), Inf. F; format: cell-based; conditions: Cryptococcus neoformans, B66663, Cryptococcus neoformans B66663; 37 °C, 24 hours, resa time 4 hours; read-out: Inf. F pIC50 (converted)
Experimental: as §8

[6] = Liver metabolic stability assay, gpLM; format: in vitro ADME, guinea pig
Experimental: as §9

[7] = tested on: Aspergillus fumigatus B42928; experiment: Antifungal activity in vitro (resazurin susceptibility screen), Inf. E; format: cell-based; conditions: Aspergillus fumigatus B42928; 27 °C, 48 hours, resa time 17 hours; read-out: Inf. E pIC50 (converted)
Experimental: as §8

[8] = tested on: Candida parapsilosis B66126; experiment: Antifungal activity in vitro (resazurin susceptibility screen), Inf. D; format: cell-based; conditions: Lodderomyces parapsilosis; Candida parapsilosis B66126; 37 °C, 24 hours, resa time 4 hours; read-out: Inf. D pIC50 (converted)
Experimental: as §4

Cytochrome P450 2C8 = biological target: T3, Cytochrome P450 2C8 (Homo sapiens, UniProt P10632); experiment: Human liver microsomal cytochrome P450 cocktail inhibition assay, Protocol C; format: in vitro ADME; conditions: human liver microsomes 0.2 mg/ml; probe amodiaquine 2 microM; read-out: 2C8_Amod pIC50 (converted)
T3 construct: tissue BD Gentest; host or cells: human liver microsomes
T3 sequence (P10632 1-490): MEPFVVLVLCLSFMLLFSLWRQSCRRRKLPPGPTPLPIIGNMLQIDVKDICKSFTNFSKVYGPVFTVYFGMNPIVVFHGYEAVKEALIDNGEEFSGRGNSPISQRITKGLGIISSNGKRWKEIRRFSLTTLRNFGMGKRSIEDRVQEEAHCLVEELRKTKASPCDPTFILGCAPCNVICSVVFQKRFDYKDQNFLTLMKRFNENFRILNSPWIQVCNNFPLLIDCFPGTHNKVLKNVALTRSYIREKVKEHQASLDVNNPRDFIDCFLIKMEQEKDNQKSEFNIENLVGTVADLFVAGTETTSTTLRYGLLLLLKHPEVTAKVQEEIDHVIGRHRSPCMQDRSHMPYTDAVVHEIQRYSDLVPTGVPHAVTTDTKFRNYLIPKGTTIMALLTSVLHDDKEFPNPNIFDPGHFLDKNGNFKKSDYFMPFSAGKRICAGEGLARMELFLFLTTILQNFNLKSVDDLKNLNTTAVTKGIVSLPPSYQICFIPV
Experimental: as §1, §2, §3

Structure (SMILES) | IC50 (Cytochrome P450 2D6) [µM] | IC50 (Cytochrome P450 2C19) [µM] | IC50 (Cytochrome P450 2C9) [µM] | IC50 (Cytochrome P450 1A2) [µM] | IC50 (Microsporum canis B68128) [µM] | IC50 [1] [µM] | IC50 [2] [µM] | IC50 [3] [µM] | IC50 [5] [µM] | IC50 [7] [µM] | IC50 [8] [µM] | further results
CCc1cccc(C2NCc3c(Cl)cccc3-n3cccc32)c1 (stereo not shown) | 2 | 1.26 | 6.31 | > 10 |  |  |  |  |  |  |  | 
CC(=O)c1cc(C2NCc3c(Cl)cc(Cl)cc3-n3cccc32)ccc1F (stereo not shown) [Compound 13, 1-[5-(7,9-dichloro-5,6-dihydro-4H-pyrrolo[1,2-a][1,4]benzodiazepin-4-yl)-2-fluorophenyl]-ethanone] |  |  |  |  | 7.94 | > 63.1 | 2 | > 63.1 | > 63.1 | > 63.1 | > 63.1 | hCYP1A2_CEC_Pct_Inh (CYP1A2; human, 10 μM, pH 7.4): 64%; hCYP2D6_AMMC_Pct_Inh (CYP2D6; human, 10 μM, pH 7.4): 51%; hCYP2C9_MFC_Pct_Inh (CYP2C9; human, 10 μM, pH 7.4): 61%; hCYP3A4_BFC_Pct_Inh (CYP3A4; human, 10 μM, pH 7.4): 81%; hCYP3A4_BQ_Pct_Inh (CYP3A4; human, 10 μM, pH 7.4): 78%; hCYP3A4_DBF_Pct_Inh (CYP3A4; human, 10 μM, pH 7.4): 91%; %-compound metabolised_Met_hLM ([4]; human, microsomes, 0.25 h, 5 μM, pH 7.4): 69%; %-compound metabolised Met_gpLM ([6]; guinea pig, microsomes, 0.25 h, 5 μM, pH 7.4): 95%
CC(=O)c1cc(C2=NCc3c(Cl)cc(Cl)cc3-n3cccc32)ccc1F [Compound 23, 1-[5-(7,9-dichloro-6H-pyrrolo[1,2-a][1,4]benzodiazepin-4-yl)-2-fluorophenyl]-ethanone] |  |  |  |  | > 63.1 | > 63.1 | > 63.1 | > 63.1 | > 63.1 | > 63.1 | > 63.1 | hCYP1A2_CEC_Pct_Inh (CYP1A2; % inhibition at 10 μM, substrate CEC, cDNA expressed protein): 17%; hCYP2D6_AMMC_Pct_Inh (CYP2D6; % inhibition at 10 μM, substrate AMMC, cDNA expressed protein): 3%; hCYP2C9_MFC_Pct_Inh (CYP2C9; % inhibition at 10 μM, substrate MFC, cDNA expressed protein): 51%; hCYP3A4_BFC_Pct_Inh (CYP3A4; % inhibition at 10 μM, substrate BFC, cDNA expressed protein): 51%; hCYP3A4_BQ_Pct_Inh (CYP3A4; % inhibition at 10 μM, substrate BQ, cDNA expressed protein): 56%; hCYP3A4_DBF_Pct_Inh (CYP3A4; % inhibition at 10 μM, substrate DBF, cDNA expressed protein): 40%; melting point: 192.3 to 193.4 °C; %-compound metabolised_Met_hLM ([4]; human liver microsomes, 1 mg protein/ml, 5 μM test compound, 15 min, 37 °C): 22%; %-compound metabolised Met_gpLM ([6]; guinea pig microsomes, 1 mg protein/ml, 5 μM test compound, 15 min, 37 °C): 39%
CC(=O)c1ccc(C2=NCc3c(Cl)cccc3-n3cccc32)cc1 [drawing 91] | > 10 | > 10 | > 10 | > 10 |  |  |  |  |  |  |  | IC50 (Cytochrome P450 2C8): > 10 µM
